Reference: ChEMBL document CHEMBL4699534, “Optimizing PEG-Extended Apelin Analogues as Cardioprotective Drug Leads: Importance of the KFRR Motif and Aromatic Head Group for Improved Physiological Activity” (J Med Chem, 2020)
Non-standard residues stand in square brackets, D forms with d. Residues, ends and D or L forms follow the SMILES beside them. *: point of attachment. Phe(4-Br) = N[C@@H](Cc1ccc(Br)cc1)C(=O)O; PEG7 = NCCOCCOCCOCCOCCOCCOCCOCCC(=O)O; Fmoc = O=C(OCC1c2ccccc2-c2ccccc21)*; NMeL = CN[C@@H](CC(C)C)C(=O)O; Nle = CCCC[C@H](N)C(=O)O; Cbz = O=C(OCc1ccccc1)*; Aib = CC(C)(N)C(=O)O

Key:
[1] = Half life in human plasma at 400 uM by HPLC analysis; type: ADME, cell-free
[2] = Half life in mouse plasma at 400 uM by HPLC analysis; type: ADME, cell-free
Apelin receptor [3] = molecular target: T1, Apelin receptor (Homo sapiens, UniProt P35414); assay: Activation of APJ receptor (unknown origin) expressed in Chem-5 cells assessed as stimulation of Ca2+ mobilization by Calcium 6-GF dye based fluorescence based assay; type: functional, cell-based
T1 sequence (P35414 whole entry): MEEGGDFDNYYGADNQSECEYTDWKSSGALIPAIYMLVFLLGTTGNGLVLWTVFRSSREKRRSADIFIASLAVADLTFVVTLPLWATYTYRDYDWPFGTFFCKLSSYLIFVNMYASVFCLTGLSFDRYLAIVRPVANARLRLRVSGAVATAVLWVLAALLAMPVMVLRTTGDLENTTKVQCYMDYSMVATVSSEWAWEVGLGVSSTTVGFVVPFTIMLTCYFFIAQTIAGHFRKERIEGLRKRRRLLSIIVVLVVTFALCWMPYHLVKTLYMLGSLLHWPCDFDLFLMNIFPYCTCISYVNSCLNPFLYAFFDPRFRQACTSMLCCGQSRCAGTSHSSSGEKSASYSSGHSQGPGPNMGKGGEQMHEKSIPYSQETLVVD

Apelin receptor [4] = molecular target: T2, Apelin receptor (Rattus norvegicus, UniProt Q9JHG3); assay: Displacement of [125I]-pyr-1-apelin-13 from EGFP-tagged wild-type rat apelin receptor expressed in CHO cell membranes by gamma counting method; parameters: species or system Cell membrane
T2 sequence (Q9JHG3 whole entry): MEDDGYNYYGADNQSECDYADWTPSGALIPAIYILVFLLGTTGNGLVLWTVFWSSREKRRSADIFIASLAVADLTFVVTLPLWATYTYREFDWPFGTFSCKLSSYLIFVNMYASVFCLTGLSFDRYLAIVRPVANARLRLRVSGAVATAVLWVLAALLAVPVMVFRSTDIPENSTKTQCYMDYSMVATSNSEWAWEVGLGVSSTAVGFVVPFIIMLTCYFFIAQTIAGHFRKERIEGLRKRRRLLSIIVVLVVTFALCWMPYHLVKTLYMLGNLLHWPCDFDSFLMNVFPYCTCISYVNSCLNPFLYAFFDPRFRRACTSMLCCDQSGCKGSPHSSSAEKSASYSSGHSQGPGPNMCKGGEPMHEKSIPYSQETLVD

Mus musculus = assay: Cardioprotective activity in C57BL/6 mouse assessed as reduction in mean arterial blood pressure at 1.4 uM/kg, iv measured after 15 mins relative to control; type: functional; details: 0.25 h
[5] = Protein binding in 55% human plasma at 100 uM incubated for 3 hrs by LC/MS detection based equilibrium dialysis; type: ADME, cell-free; details: 55% plasma, read-out: PPB (converted)
[6] = Protein binding in 55% mouse plasma at 100 uM incubated for 3 hrs by LC/MS detection based equilibrium dialysis; type: ADME, cell-free; details: 55% plasma, read-out: PPB (converted)
[7] = Lipophilicity, log D of the compound in pH 7.4 PBS by LC/MS detection based shake flask assay; type: physicochemical
Heart [8] = assay: Cardioprotective activity in mouse Langendorff heart perfusion and ischemia-reperfusion injury model assessed as left ventricle developed pressure at 1 uM dosed at start of reperfusion for 10 mins; type: functional
Heart [9] = assay: Cardioprotective activity in mouse Langendorff heart perfusion and ischemia-reperfusion injury model assessed as maximum derivative of change in systolic blood pressure over time at 1 uM dosed at start of reperfusion for 10 mins; type: functional

Compound | half-life at 400 µM [1] [h] | half-life at 400 µM [2] [h] | EC50 (Apelin receptor [3]) [nM] | IC50 (Apelin receptor [4]) [nM] | Activity (Mus musculus) [mmHg] | fraction unbound at 3 h, 100 µM [5] | fraction unbound at 3 h, 100 µM [6] | logD [7] | Activity (Heart [8]) [mmHg] | dP/dt max (Heart [9]) [mmHg/s]
CCCC[C@H](NC(=O)[C@@H]1CCCN1C(=O)CNC(=O)[C@H](CCCCN)NC(=O)[C@H](Cc1c[nH]cn1)NC(=O)[C@H](CO)NC(=O)[C@H](CC(C)C)N(C)C(=O)[C@H](CCCNC(=N)N)NC(=O)[C@@H]1CCCN1C(=O)[C@H](CCCNC(=N)N)NC(=O)[C@H](CCC(N)=O)NC(=O)[C@H](CCCNC(=N)N)NC(=O)[C@H](CCCNC(=N)N)NC(=O)[C@H](Cc1ccccc1)NC(=O)[C@H](CCCCN)NC(=O)CCOCCOCCOCCOCCOCCOCCOCCNC(=O)OCC1c2ccccc2-c2ccccc21)C(=O)NC(C)(C)C(=O)N[C@@H](Cc1ccc(Br)cc1)C(=O)O ({Fmoc-PEG7}-KFRRQRPR[NMeL]SHKGP[Nle][Aib][Phe(4-Br)]-OH) | 27 | 2.8 | 2.51 | 0.55 | 47 | 0.06 | 0.11 | -1.45 | 90 | 2050
CCCC[C@H](NC(=O)[C@@H]1CCCN1C(=O)CNC(=O)[C@H](CCCCN)NC(=O)[C@H](Cc1c[nH]cn1)NC(=O)[C@H](CO)NC(=O)[C@H](CC(C)C)N(C)C(=O)[C@H](CCCNC(=N)N)NC(=O)[C@@H]1CCCN1C(=O)[C@H](CCCNC(=N)N)NC(=O)[C@H](CCC(N)=O)NC(=O)[C@H](CCCNC(=N)N)NC(=O)[C@H](CCCNC(=N)N)NC(=O)[C@H](Cc1ccccc1)NC(=O)[C@H](CCCCN)NC(=O)CCOCCOCCOCCOCCOCCOCCOCCNC(=O)OCc1ccccc1)C(=O)NC(C)(C)C(=O)N[C@@H](Cc1ccc(Br)cc1)C(=O)O ({Cbz-PEG7}-KFRRQRPR[NMeL]SHKGP[Nle][Aib][Phe(4-Br)]-OH) | 18.2 | 2.9 | 6.17 | 1.91 | 43 | 0.15 | 0.17 | -1.54 | 119 | 2600
